# Assays:
# [1] = logP determination by HPLC on a reversed-phase column (C18); assay type: physicochemical; settings: for log P: HPLC-MS; for logP: HPLC, C18 reversed phase, acetonitrile/water with formic acid, EEC Directive 79/831 Annex V.A8; for logP^a): HPLC-MS method a)
# Meloidogyne incognita = Meloidogyne incognita test; assay type: in vivo; settings: application rate 20 ppm; lettuce; after 14 days
# Method: Solvent: 125.0 parts by weight of acetone
# To produce an appropriate active ingredient formulation, 1 part by weight of active ingredient is mixed with the stated amount of solvent and the concentrate is diluted with water to the desired concentration.
# Vessels are filled with sand, active ingredient solution, an egg/larvae suspension of the southern root-knot nematode (Meloidogyne incognita) and lettuce seeds. The lettuce seeds germinate and the plants develop. The galls develop on the roots.
# After 14 days, the nematicidal efficacy in % is determined by the formation of galls. 100% means that no galls were found; 0% means that the number of galls on the treated plants corresponds to the untreated control.
# Tetranychus urticae = Tetranychus urticae - spray test, OP-resistant; assay type: in vivo; settings: bean leaf discs, after 6 days
# Procedure, shortened: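 Compound dissolved in acetone/DMF, diluted with water containing 1000 ppm alkylaryl polyglycol ether emulsifier to test concentrations. Bean leaf discs infested with all stages of spider mites were sprayed; % kill determined after 6 days (100% = all mites dead, 0% = none).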
# Phaedon cochleariae = Phaedon cochleariae - spray test; assay type: in vivo; settings: larvae on Chinese cabbage leaf discs, after 7 days
# Procedure, shortened: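 Chinese cabbage leaf discs sprayed with compound formulated in acetone/DMF and water containing 1000 ppm emulsifier; once dry, infested with mustard beetle larvae. Efficacy (% larvae killed) scored after 7 days.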
# Myzus persicae = Myzus persicae - spray test; assay type: in vivo; settings: Chinese cabbage leaf discs, after 6 days
# Procedure, shortened: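 Chinese cabbage leaf discs carrying all stages of Myzus persicae sprayed with compound in acetone/DMF diluted in water with 1000 ppm emulsifier. Efficacy (% aphids killed) assessed after 6 days.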
# Spodoptera frugiperda = Spodoptera frugiperda - spray test; assay type: in vivo; settings: caterpillars on maize leaf discs, after 7 days
# Procedure, shortened: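 Maize leaf discs sprayed with compound formulated in acetone/DMF and diluted in water containing 1000 ppm alkylaryl polyglycol ether emulsifier, then infested with armyworm caterpillars after drying. Efficacy scored after 7 days as % caterpillars killed (100% all, 0% none).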
# Amblyomma hebraeum = assay: Amblyomma hebaraeum test (tick nymphs, immersion); assay type: in vivo; settings: application rate 100 ppm; tick nymphs immersed one minute; after 42 days
# Procedure, shortened: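 Tick nymphs immersed for one minute in compound diluted in water from a DMSO concentrate, then held on filter paper in a Petri dish in a climate-controlled cabinet. Kill (%) scored after 42 days; 100% means all ticks dead, 0% none.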
# [2] = tested on: Anopheles gamhiae strain RSPH (homozygot kdr); assay: Anopheles test (ANPHGB surface treatment); assay type: in vivo; settings: read-out: efficacy (mortality)
# Method: (§1) Solvent: acetone+2000 ppm rapeseed oil methyl ester (RME)
# (§2) To produce an appropriate active ingredient formulation, the active ingredient is dissolved in the solvent (2 mg/ml). The active ingredient formulation is pipetted onto a glazed tile and, after it has dried off, adult mosquitoes of the species Anopheles gamhiae strain RSPH (homozygot kdr) are placed onto the treated tile. The exposure time is 30 minutes.
# (§3) 24 hours after contact with the treated surface, mortality in % is determined. 100% means that all mosquitoes have been killed; 0% means that none of the mosquitoes have been killed.
# [3] = tested on: Anopheles funestus strain FUMOZ-R; assay: Anopheles test (ANPHFU surface treatment); assay type: in vivo; settings: read-out: efficacy (mortality)
# Method: as §1
# as §2, with “funestus” for “gamhiae”, “FUMOZ-R (Hunt et al., Med Vet Entomol. 2005 September; 19 (3):271-5)” for “RSPH (homozygot kdr)”
# as §3
# Musca domestica = Musca domestica test; assay type: in vivo; settings: application rate 100 ppm; adult houseflies; after 2 days
# Procedure, shortened: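 Percent kill of adult houseflies is recorded 2 days after exposure, where 100% denotes all flies dead and 0% none. Flies (10 per vessel) feed from a sponge carrying sugar solution and the aqueous-diluted DMSO formulation.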
# [4] = tested on: Aedes aegypti strain MONHEIM; assay: Aedes test (AEDSAE surface treatment); assay type: in vivo; settings: read-out: efficacy (mortality)
# Method: as §1
# as §2, with “Aedes aegypti” for “Anopheles gamhiae”, “MONHEIM” for “RSPH (homozygot kdr)”
# as §3
# Rhipicephalus sanguineus = Rhipicephalus sanguineus - in vitro contact tests with adult brown dog ticks; assay type: in vivo; settings: application rate 5 μg/cm2; after 48 h; ticks dead or moribund
# Procedure, shortened: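 Test tubes coated with active ingredient in acetone, 5 μg/cm^2 at 900 ppm. 5-10 adult ticks per tube, kept dark at room temperature for 48 h. Ticks then heated at 45-50° C ≤5 min; motionless or uncoordinated ticks scored dead/moribund, efficacy as % dead or moribund.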
# [5] = tested on: Boophilus microplus Parkhurst strain, SP-resistant; assay: Boophilus microplus - dip test; assay type: in vivo; settings: application rate 100 ppm; dip of engorged adult female ticks; after 7 days
# Procedure, shortened: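 SP-resistant Parkhurst strain engorged adult female Boophilus microplus (8-10 per tube) dipped in DMSO-based compound dilutions in water, then kept in a climate-controlled room. Efficacy scored after 7 days from fertile egg laying, with larval hatch checked after about 42 days; 100% means no fertile eggs.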
# Ctenocephalides felis [6] = assay: Ctenocephalides felis - in vitro contact tests with adult cat fleas; assay type: in vivo; settings: application rate 5 μg/cm2 (=500 g/ha); after 48 h; fleas dead or moribund
# Procedure, shortened: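 Tubes coated with compound in acetone (250 μl of 900 ppm solution gives 5 μg/cm^2 on 44.7 cm^2), solvent evaporated, then 5–10 adult fleas added and kept horizontal at room temperature and ambient humidity. After 48 h, dead or moribund (motionless/uncoordinated) fleas scored as % efficacy.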
# Boophilus microplus = Boophilus microplus - injection test; assay type: in vivo; settings: application rate 20 μg/animal, injection into engorged adult female ticks, after 7 days; for pest or weed control at 0.02 mg: Rhipicephalus microplus, 168 h, read-out: efficacy (laying of fertile eggs)
# Procedure, shortened: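 Active ingredient in DMSO, 1 μl injected into the abdomen of 5 engorged adult female ticks, then held in a climate-controlled room. Efficacy scored after 7 days from laying of fertile eggs, with non-fertile-looking eggs kept about 42 days for larval hatch; 100% means no fertile eggs.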
# Ctenocephalides felis [7] = assay: Ctenocephalides felis - oral test; assay type: in vivo; settings: application rate 100 ppm in citrated cattle blood; after 2 days
# Procedure, shortened: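 Compound in DMSO diluted into citrated cattle blood, fed through a parafilm membrane to about 20 unfed adult cat fleas. Kill in % scored after 2 days (100% = all dead).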
# Lucilia cuprina = Lucilia cuprina test; assay type: in vivo; settings: application rate 100 ppm; L1 larvae; after 2 days
# Procedure, shortened: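 About 20 L1 larvae placed on minced horsemeat treated with compound, formulated in DMSO and diluted with water to test concentration. Kill in % scored after 2 days (100% = all larvae dead, 0% = none).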
# [8] = reversed-phase column (C18), Table I-T3
Compound,"log P [1, 8]",efficacy (Tetranychus urticae; application rate 500 g/ha) [%],efficacy (Phaedon cochleariae; application rate 500 g/ha) [%],efficacy (Myzus persicae; application rate 100 g/ha) [%],efficacy (Spodoptera frugiperda; application rate 500 g/ha) [%],efficacy (kill) (Amblyomma hebraeum) [%],efficacy (kill) (Musca domestica) [%],efficacy (Rhipicephalus sanguineus) [%],efficacy (laying of fertile eggs) [5] [%],efficacy (Ctenocephalides felis [6]) [%],efficacy (kill) (Ctenocephalides felis [7]) [%],efficacy (kill) (Lucilia cuprina) [%],efficacy (laying of fertile eggs) (Boophilus microplus) [%],further results
O=C(NC1CC1)c1cc(-c2cnn(-c3c(Cl)cc(C(F)(F)F)c(F)c3Cl)c2)ccc1Cl [I-T3-184],3.6,100,100,100,100,,,,,,,,,nematicidal efficacy (formation of galls) (Meloidogyne incognita): 90%
N#CC1(NC(=O)c2cc(-c3cnn(-c4c(Cl)cc(C(F)(F)F)c(F)c4Cl)c3)ccc2Cl)CC1 [I-T3-185],3.6,100,100,,100,,,,,,,,,nematicidal efficacy (formation of galls) (Meloidogyne incognita): 90%; efficacy (Myzus persicae; application rate 500 g/ha): 100%
"Cc1cc(C(F)(C(F)(F)F)C(F)(F)F)cc(C)c1-c1cc(-c2ccc(Cl)c(C(=O)NC3CC3)c2)on1 [I-T22-1, 2-chloro-N-cyclopropyl-5-[3-[2,6-dimethyl-4-[1,2,2,2-tetrafluoro-1-(trifluoromethyl)ethyl]phenyl]isoxazol-5-yl]benzamide]",,,,100,,100,100,100,100,100,,,,mortality at 100 mg/m2 [2]: 90 to 100%; logP [1]: 4.8; mortality at 20 mg/m2 [3]: 90 to 100%; mortality at 100 mg/m2 [3]: 90 to 100%; mortality at 20 mg/m2 [4]: 90 to 100%; mortality at 100 mg/m2 [4]: 90 to 100%; pest or weed control at 0.02 mg (Boophilus microplus): 100%
O=C(NC1CC1)c1cc(-c2cnn(-c3c(Cl)cc(C(F)(F)F)cc3Cl)c2)cnc1Cl [I-T3-98],3.1,100,100,90,100,100,90,100,100,100,100,100,100,logP^a) [1]: 3.1
"O=C(NC1CC1)c1cc(-c2cc(-c3c(Cl)cc(C(F)(C(F)(F)F)C(F)(F)F)cc3Cl)on2)ccc1Cl [I-T23-1, 2-chloro-N-cyclopropyl-5-[5-[2,6-dichloro-4-[1,2,2,2-tetrafluoro-1-(trifluoromethyl)ethyl]phenyl]isoxazol-3-yl]benzamide]",,,,,,100,100,,100,100,,,,logP [1]: 5.0; mortality at 20 mg/m2 [3]: 90 to 100%; mortality at 20 mg/m2 [4]: 90 to 100%; mortality at 100 mg/m2 [4]: 90 to 100%; pest or weed control at 0.02 mg (Boophilus microplus): 100%
Cc1cc(C(F)(C(F)(F)F)C(F)(F)F)cc(C(F)(F)F)c1-n1cc(-c2ccc(Cl)c(C(=O)NC3CC3)c2)cn1 [I-T3-54],,,,100,,100,100,100,100,100,100,100,100,"logP^a) [1]: 4.4; logP^a) [1, 8]: 4.4; efficacy (Tetranychus urticae; application rate 100 g/ha): 100%; efficacy (Phaedon cochleariae; application rate 100 g/ha): 100%; efficacy (Spodoptera frugiperda; application rate 100 g/ha): 100%"
Cc1cc(C(F)(C(F)(F)F)C(F)(F)F)cc(C(F)(F)F)c1-n1cc(-c2cnc(C)c(C(=O)NC3CC3)c2)cn1 [I-T3-117],3.5,90,100,,100,100,100,100,100,100,100,100,100,logP^a) ([1]; reversed-phase column (C18)): 3.5; efficacy (Myzus persicae; application rate 500 g/ha): 90%

# — US10150737B2, “Compounds for controlling arthropods” (priority 2013, dated 2018)
